# From US5891882A, “Benzopyranopyrrole and benzopyranopyridine α-1 adenergic compounds” (priority 1997, dated 1999)
# Counter-ions that a name gives are not always drawn.
# Columns and labels:
# [1] = target: T1, α-1A adrenoreceptor (rat submaxillary gland) (Rattus norvegicus, UniProt P43140); experiment: In vitro [3H]-prazosin radioligand binding, pharmacologically defined α-1A adrenoreceptor (rat submaxillary gland)
# T1 construct: Rat submaxillary glands were used for α-1A adrenoreceptors; from tissue; host or cells: rat submaxillary gland membranes
# T1 sequence (P43140 1-466): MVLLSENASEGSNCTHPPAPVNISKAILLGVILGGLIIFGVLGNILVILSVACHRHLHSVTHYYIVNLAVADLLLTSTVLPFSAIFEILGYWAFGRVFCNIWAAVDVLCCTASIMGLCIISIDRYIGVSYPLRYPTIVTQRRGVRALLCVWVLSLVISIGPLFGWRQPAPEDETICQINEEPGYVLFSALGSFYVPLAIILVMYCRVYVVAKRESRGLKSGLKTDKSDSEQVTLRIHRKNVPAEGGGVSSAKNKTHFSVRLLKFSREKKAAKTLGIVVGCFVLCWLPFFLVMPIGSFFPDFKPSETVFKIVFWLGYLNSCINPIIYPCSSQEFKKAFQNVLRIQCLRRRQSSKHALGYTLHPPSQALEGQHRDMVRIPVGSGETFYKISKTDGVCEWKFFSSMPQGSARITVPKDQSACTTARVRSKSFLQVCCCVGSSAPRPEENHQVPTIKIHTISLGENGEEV
# Description: (§1) Additionally, binding affinity against the pharmacologically defined α-1A adrenoreceptor (rat submaxillary gland) was measured.
# (§2) On the fifth day of culture, growth medium was removed from cells grown in roller bottles, and the cells were washed twice with PBS (Sigma, 120 mM NaCl, 2.7 mM KCl, 10 mM Na2 HPO4 --NaH2 PO4, pH=7.4). Cells were detached from the roller bottles by incubating for 15 minutes at 37° C. in a Tris-EDTA solution (10 mM Tris, 100 mM NaCl, 1 mM EDTA, pH=7.4). The cell suspension from each roller bottle was decanted into tared centrifuge tubes and kept on ice. An aliquot of each cell suspension was generally taken for cell counting. Cells were centrifuged at 3000×G for 5 min at 2°-4° C., washed with PBS and recentrifuged. The supernatant was decanted and the pellet weighed to determine the wet weight of cells. Cells were washed a final time in 40 vol 5 mM Tris-HCl, 5 mM EDTA, pH=7.7, and centrifuged at 40,000×G for 10 minutes. Cells were homogenized in 10 mL of 50 mM Tris-HCl, 5 mM EDTA (pH=7.4) and diluted to 40 mL/tube. Homogenates were centrifuged at 40,000×G for 10 minutes. The supernatant was decanted and the pellets rehomogenized in 50 mM Tris-HCl (pH=7.4) and centrifuged as before. The supernatant was decanted and the homogenate resuspended in 6.25 volumes (per gram wet weight) of 50 mM Tris-HCl and aliquots of the pooled homogenates frozen in liquid N2 and stored at -70° C. until the time of assay. Rat submaxillary glands were used for α-1A adrenoreceptors and were prepared essentially as described (Michel, A. D., Loury, D. N. and Whiting, R. L., Brit. J. Pharmacol. 98: 83-889 (1989)).
# (§3) Receptor binding assays for α-1 adrenoreceptors were performed essentially as described by Greengrass and Bremner (Eur. J. Pharmacol. 55: 323-326 (1979)). […] Radioactivity was determined by standard liquid scintillation techniques. Data were analyzed as previously described (Hancock, A. A., Kyncl, J. J., Martin, Y. C. and DeBernardis, J. F., J Receptor Res. 8: 23-46 (1988)).
# [2] = target: T2, α-1a adrenoreceptor (bovine) (Bos taurus, UniProt P18130); experiment: In vitro [3H]-prazosin radioligand binding, cloned α-1a adrenoreceptor expressed in LTK cells
# T2 construct: expressed in transfected cells; cDNA from TULCO; membranes
# T2 sequence (P18130 1-466): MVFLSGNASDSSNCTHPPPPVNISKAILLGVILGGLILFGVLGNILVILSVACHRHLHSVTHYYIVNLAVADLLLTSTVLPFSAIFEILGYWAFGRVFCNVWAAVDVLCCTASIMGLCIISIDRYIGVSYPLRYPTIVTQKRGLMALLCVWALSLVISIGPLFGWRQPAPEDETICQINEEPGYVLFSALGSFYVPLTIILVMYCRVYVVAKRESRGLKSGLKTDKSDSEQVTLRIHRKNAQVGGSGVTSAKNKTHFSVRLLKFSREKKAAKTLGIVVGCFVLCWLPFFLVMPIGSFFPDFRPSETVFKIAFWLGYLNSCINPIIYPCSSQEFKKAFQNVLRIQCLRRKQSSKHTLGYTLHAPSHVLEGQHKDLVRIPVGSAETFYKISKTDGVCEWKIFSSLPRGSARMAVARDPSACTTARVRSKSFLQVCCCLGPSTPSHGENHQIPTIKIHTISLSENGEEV
# Text: (§4) The cDNA clones encoding the α-1 adrenoreceptors (α-1a, α-1b, and α-1d) were obtained from TULCO (Triangle Universities Licensing Consortium, Research Triangle Park, N.C.) and inserted into the eukaryotic expression vector SnaB30. In this vector, expression of the adrenoreceptor gene is under the transcriptional control of an SV40 early promoter. Positive drug selection is provided by a neomycin-resistance gene. Mouse fibroblast cells (LTK) were transfected with the α1 expression plasmids and grown in Dulbecco's modified Eagle's medium (DMEM) containing 10% fetal calf serum and […]. Stable G418-resistant parental lines were generated, with successful expression of adrenoreceptor protein monitored using radioligand binding techniques. Stable single cell clones derived from the parental lines were screened in adrenoreceptor binding assays to identify clones having high adrenoreceptor density. Roller bottle cultures of the cloned lines were used to provide cell membranes for subsequent adrenoreceptor binding characterization studies. A cell line containing the SnaB30 vector expressing the human erythropoietin gene served as a negative control.
# (§5) For adrenoreceptor binding assays, large scale membrane preparations were utilized in which 6 million cells were seeded into small (450 cm^2) Corning tissue culture roller bottles. 200 mL of DMEM containing 10% fetal calf serum and 300 μM G418 were added to each roller bottle. A 95% air/5% CO2 gas mixture (sterile) was injected into each roller bottle prior to sealing. The bottles were then incubated at 37° C. on a roller rack for 5 days. Cells were re-fed with fresh medium after 3 days in culture.
# as §2, §3
# [3] = target: T3, α-1b adrenoreceptor (hamster) (Mesocricetus auratus, UniProt P18841); experiment: In vitro [3H]-prazosin radioligand binding, cloned α-1b adrenoreceptor expressed in LTK cells
# T3 construct: expressed in transfected cells; cDNA from TULCO; membranes
# T3 sequence (P18841 1-515): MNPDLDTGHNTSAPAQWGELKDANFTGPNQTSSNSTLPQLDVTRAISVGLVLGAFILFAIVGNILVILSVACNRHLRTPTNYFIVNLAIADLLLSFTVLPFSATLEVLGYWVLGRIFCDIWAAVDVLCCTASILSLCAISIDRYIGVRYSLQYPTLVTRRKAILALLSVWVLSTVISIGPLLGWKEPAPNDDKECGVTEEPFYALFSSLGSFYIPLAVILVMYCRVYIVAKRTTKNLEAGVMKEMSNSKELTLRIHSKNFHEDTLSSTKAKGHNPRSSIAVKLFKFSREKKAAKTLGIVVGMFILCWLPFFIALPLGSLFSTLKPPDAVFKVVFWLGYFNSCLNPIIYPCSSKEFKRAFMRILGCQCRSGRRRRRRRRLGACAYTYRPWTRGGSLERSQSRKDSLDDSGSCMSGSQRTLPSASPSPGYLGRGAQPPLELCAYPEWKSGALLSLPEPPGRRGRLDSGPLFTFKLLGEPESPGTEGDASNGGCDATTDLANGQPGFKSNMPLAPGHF
# Text: as §4, §5, §2, §3
# [4] = target: T4, α-1d adrenoreceptor (rat) (Rattus norvegicus, UniProt P23944); experiment: In vitro [3H]-prazosin radioligand binding, cloned α-1d adrenoreceptor expressed in LTK cells
# T4 construct: expressed in transfected cells; cDNA from TULCO; membranes
# T4 sequence (P23944 1-561): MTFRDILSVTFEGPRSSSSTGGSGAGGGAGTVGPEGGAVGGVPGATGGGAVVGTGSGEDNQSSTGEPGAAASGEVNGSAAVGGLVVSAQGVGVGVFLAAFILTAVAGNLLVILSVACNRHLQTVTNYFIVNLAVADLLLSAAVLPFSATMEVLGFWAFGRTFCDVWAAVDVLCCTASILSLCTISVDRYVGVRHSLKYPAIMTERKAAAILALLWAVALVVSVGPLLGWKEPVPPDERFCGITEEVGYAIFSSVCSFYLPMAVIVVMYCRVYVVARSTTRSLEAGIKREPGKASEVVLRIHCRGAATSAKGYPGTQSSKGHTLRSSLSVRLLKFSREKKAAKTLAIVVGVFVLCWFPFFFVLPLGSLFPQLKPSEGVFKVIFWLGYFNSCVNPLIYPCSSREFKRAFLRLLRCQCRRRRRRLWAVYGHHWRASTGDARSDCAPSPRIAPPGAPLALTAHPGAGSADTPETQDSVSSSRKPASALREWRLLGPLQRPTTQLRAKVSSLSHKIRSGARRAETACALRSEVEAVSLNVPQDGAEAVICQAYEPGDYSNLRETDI
# Description: as §1, §4, §5, §2, §3
# [5] = target: T5, α-1 Adrenoceptors (Rat Aorta) (Rattus norvegicus, UniProt P23944); experiment: Functional antagonism at α-1 adrenoceptors, rat aorta; type: cell-based; conditions: for Kb: read-out: In Vitro Characterization (pA2) Rat Aorta (converted)
# T5 construct: Rat Aorta; from tissue; host or cells: rat aorta
# T5 sequence (P23944 1-561): T4 sequence (P23944 1-561)
# Text: (§6) Functional assays indicative of pharmacologically defined α-1 adrenoreceptors were used to further characterize compounds. Inhibition of phenylephrine (PE)-induced contraction of canine prostate smooth muscle can be correlated with α-1A adrenoreceptor activation. […] For each of these models, agonist dose response curves were repeated against increasing concentrations of test agent to derive a Schild plot [log ([…]) against log (molarity of test agent)] to determine the pA2.
# α-1 adrenoreceptor = conditions: cited from earlier work
# [6] = target: T6, α-1A adrenoreceptor (rat vas deferens) (Rattus norvegicus, UniProt P43140); experiment: Functional antagonism: inhibition of phenylephrine-induced contraction of rat vas deferens; type: cell-based; conditions: rat vas deferens, phenylephrine-induced contraction, Schild plot
# T6 construct: from tissue; host or cells: rat vas deferens
# T6 sequence (P43140 1-466): T1 sequence (P43140 1-466)
# Text: as §6
SMILES,Ki [1],Ki [2],Ki [3],Ki [4],In Vitro Characterization (pA2) Rat Aorta [5],dose limiting side effects (α-1 adrenoreceptor; BPH treatment),"urinary flow rates and subjective symptom scores (α-1 adrenoreceptor; longer term studies, BPH)",clinical efficacy in BPH (α-1 adrenoreceptor; non-selective α-1 blockers),In Vitro Characterization (pA2) Rat Vas [6],Kb [5]
"COc1cccc2c1[C@@H]1CCN(CCCn3c(=O)[nH]c4c(sc5ccccc54)c3=O)C[C@H]1CO2 (relative stereo) [Example 89, 3-[3-((±)-trans-10-Methoxy-1,3,4,4a,5,10b-hexahydro-2H-[1]-benzopyrano[3,4-c]pyrido-3-yl)propyl]-[1]-benzthieno[3,2-d]pyrimidine-2,4(1H,3H)-dione hydrochloride]",0.133 nM,0.038 nM,0.111 nM,0.061 nM,–,–,–,–,–,–
"COc1cc2[nH]c(=O)n(CCCCN3CC[C@H]4c5c(OC)cccc5OC[C@@H]4C3)c(=O)c2cc1OC (relative stereo) [Example 86, 3-[4-((±)-trans-10-Methoxy-1,3,4,4a,5,10b-hexahydro-2H-[1]-benzopyrano[3,4-c]pyrido-3-yl)butyl]-6,7-dimethoxy-quinazoline-2,4(1H,3H)-dione hydrochloride]",0.54 nM,0.202 nM,1.71 nM,0.398 nM,–,–,–,–,–,–
"COc1cc2[nH]c(=O)n(CCCCN3C[C@@H]4COc5cccc(OC)c5[C@H]4C3)c(=O)c2cc1OC (racemic) [Example 82, 3-[4-((±)-trans-9-Methoxy-1,2,3,3a,4,9b-hexahydro-[1]-benzopyrano[3,4-c]pyrrol-2-yl)butyl]-6,7-dimethoxy-quinazoline-2,4(1H,3H)-dione dihydrochloride]",0.577 nM,0.361 nM,4.9 nM,1.58 nM,–,–,–,–,–,–
"COc1cc2nc(N3CCN(C(=O)C4CCCO4)CC3)nc(N)c2cc1OC (stereo not shown) [Terazosin, terazosin]",–,–,–,–,8.65,"hypotension, dizziness, and muscle fatigue",significant improvements in urinary flow rates and subjective symptom scores,Clinical efficacy,–,–
"COc1cccc2c1[C@@H]1CCN(CCCn3c(=O)[nH]c4c(sc5ncccc54)c3=O)C[C@H]1CO2 (relative stereo) [Example 84, 3-[3-(±)-trans-10-Methoxy-1,3,3,4a,5,10b-hexahydro-2H-[1]-benzopyrano[3,4-c]pyrido-3-yl)propyl]-pyrido[3',2':4,5]thieno[3,2-d]pyrimidine-2,4(1H,3H)-dione hydrochloride]",0.479 nM,0.617 nM,4.92 nM,1.12 nM,–,–,–,–,–,–
"COc1cccc2c1[C@@H]1CN(CCCCn3c(=O)[nH]c4c(sc5ccncc54)c3=O)C[C@@H]1CO2 [Example 28, 3-[4-((3aR,9bR)-cis-9-Methoxy-1,2,3,3a,4,9b-hexahydro-[1]-benzopyrano[3,4-c]pyrrol-2-yl)butyl]-pyrido[3',3':4,5]thieno[3,2-d]pyrimidine-2,4(1H,3H)-dione hydrochloride]",–,–,–,–,–,–,–,–,9.39,0.195 nM
"COc1cccc2c1[C@@H]1CCN(CCn3c(=O)[nH]c4c(sc5ccccc54)c3=O)C[C@H]1CO2 (relative stereo) [Example 90, 3-[2-((±)-trans-10-Methoxy-1,3,4,4a,5,10b-hexahydro-2H-[1]-benzopyrano[3,4-c]pyrido-3-yl)ethyl]-[1]-benzthieno[3,2-d]pyrimidine-2,4(1H,3H)-dione hydrochloride]",0.323 nM,0.135 nM,2.29 nM,0.439 nM,–,–,–,–,–,–
"COc1cccc2c1[C@@H]1CN(CCCCn3c(=O)[nH]c4c(sc5nc(C)ccc54)c3=O)C[C@H]1CO2 [Example 45, 3-[4-((3aS,9bR)-trans-9-Methoxy-1,2,3,3a,4,9b-hexahydro-[1]-benzopyrano[3,4-c]pyrrol-2-yl)butyl]-7-methyl-pyrido[3',2':4,5]thieno[3,2-d]pyrimidine-2,4(1H,3H)-dione hydrochloride]",–,–,–,–,–,–,–,–,9.59,0.209 nM
